Assay results from US20060074243A1, “Hydroxamic acid and amide compounds and their use as protease inhibitors” (Pharmacia Corporation, priority 2002, published 2006).

Legend:
Human recombinant MMP-2 = biological target: T1, Human recombinant MMP-2 (Homo sapiens, UniProt P08253); assay: In vitro MMP inhibition analysis (fluorogenic peptide substrate cleavage), Ki; assay type: biochemical; conditions: Table 2
T1 construct: made in house; host or cells: MMP-2-transfected p2AHT2 cells
T1 sequence (P08253 110-660): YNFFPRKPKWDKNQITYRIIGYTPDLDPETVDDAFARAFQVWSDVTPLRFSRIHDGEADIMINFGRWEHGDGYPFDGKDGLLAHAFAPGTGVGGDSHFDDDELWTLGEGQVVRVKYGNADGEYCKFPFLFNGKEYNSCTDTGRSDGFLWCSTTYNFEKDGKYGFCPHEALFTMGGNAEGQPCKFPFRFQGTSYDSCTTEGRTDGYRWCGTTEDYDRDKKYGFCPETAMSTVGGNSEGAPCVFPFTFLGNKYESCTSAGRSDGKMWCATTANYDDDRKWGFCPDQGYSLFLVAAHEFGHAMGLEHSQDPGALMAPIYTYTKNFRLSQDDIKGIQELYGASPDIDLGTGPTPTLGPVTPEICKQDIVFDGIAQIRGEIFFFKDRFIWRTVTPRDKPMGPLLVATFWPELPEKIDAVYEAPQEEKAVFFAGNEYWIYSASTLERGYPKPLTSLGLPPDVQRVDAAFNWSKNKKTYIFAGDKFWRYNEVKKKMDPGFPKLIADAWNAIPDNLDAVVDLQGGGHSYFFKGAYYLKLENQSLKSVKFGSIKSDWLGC
In short: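 Human recombinant MMP-2 from transfected p2AHT2 cells was activated with APMA or trypsin and incubated 1 h at room temperature with compounds and 4 μM MCA-RPLGL(Dpa)ARER-NH2. Buffer was pH 7.5 Tris/NaCl/CaCl2, and fluorescence was read at ex 330/em 420 nm. Ki was fitted by Morrison's equation without substrate correction.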

Human recombinant MMP-13 = biological target: T2, Human recombinant MMP-13 (Homo sapiens, UniProt P45452); assay: as above; assay type: biochemical; conditions: Table 2
T2 construct: made in house; host or cells: baculovirus / insect cells
In short: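 Baculovirus-expressed full-length MMP-13 proenzyme was purified on heparin-agarose and zinc-chelate columns, then APMA-activated. It cleaved 4 μM MCA/Dpa fluorogenic peptide in 100 mM Tris-HCl, 100 mM NaCl, 10 mM CaCl2, 0.05% Brij-23, pH 7.5, for 1 h at room temperature (ex 330/em 420 nm). Ki came from Morrison-equation fits with substrate ≤Km, uncorrected.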

O=C(NCC1CC1)c1ccc2cc(-c3ccc(S(=O)(=O)C4(C(=O)NO)CCOCC4)cc3)ccc2c1 [Example 220]
Ki (Human recombinant MMP-2): 0.539 nM | Ki (Human recombinant MMP-13): 0.259 nM

CCCCc1ccc(-c2ccc(S(=O)(=O)C3(C(=O)NO)CCOCC3)cc2)cc1 [Example 91]
Ki (Human recombinant MMP-2): 0.374 nM | Ki (Human recombinant MMP-13): 0.217 nM

O=C(CCc1nccs1)c1ccc(-c2ccc(S(=O)(=O)C3(C(=O)NO)CCOCC3)cc2)cc1 [Example 211]
Ki (Human recombinant MMP-2): 0.246 nM | Ki (Human recombinant MMP-13): 0.056 nM

O=C(NO)C1(S(=O)(=O)c2ccc(-c3ccc(CCCC(F)(F)F)cn3)cc2)CC=CC1 [Example 202]
Ki (Human recombinant MMP-2): 0.32 nM | Ki (Human recombinant MMP-13): 0.076 nM

COC(=O)c1ccc2cc(-c3ccc(S(=O)(=O)C4(C(=O)NO)CCOCC4)cc3)ccc2c1 [Example 181]
Ki (Human recombinant MMP-2): 0.272 nM | Ki (Human recombinant MMP-13): 0.09 nM

CC(C)CCNC(=O)c1cnc(-c2ccc(S(=O)(=O)C3(C(=O)NO)CCOCC3)cc2)cn1 [Example 185]
Ki (Human recombinant MMP-2): 0.91 nM | Ki (Human recombinant MMP-13): 0.19 nM

CC(C)c1ccc(-c2ccc(S(=O)(=O)C3(C(=O)NO)CCOCC3)cc2)cc1 [Example 97]
Ki (Human recombinant MMP-2): 1.14 nM | Ki (Human recombinant MMP-13): 0.521 nM

CC(C)COc1cnc(-c2ccc(S(=O)(=O)C3(C(=O)NO)CCOCC3)cc2)cn1 [Example 170]
Ki (Human recombinant MMP-2): 0.09 nM | Ki (Human recombinant MMP-13): 0.08 nM

O=C(NO)C1(S(=O)(=O)c2ccc(-c3nc4ccccc4s3)cc2)CCOCC1 [Example 195]
Ki (Human recombinant MMP-2): 5.74 nM | Ki (Human recombinant MMP-13): 7.2 nM

CCC(C)COc1ccc(-c2ccc(S(=O)(=O)C3(C(=O)NO)CCOCC3)cc2)cc1C(F)(F)F (stereo not shown) [Example 92]
Ki (Human recombinant MMP-2): 58.1 nM | Ki (Human recombinant MMP-13): 29.7 nM

CCNc1cnc(-c2ccc(S(=O)(=O)C3(C(=O)NO)CCOCC3)cc2)cn1 [Example 93]
Ki (Human recombinant MMP-2): 4.16 nM | Ki (Human recombinant MMP-13): 4.45 nM

CCCCc1ccc(-c2ccc(S(=O)(=O)C3(C(=O)NO)CCOCC3)cc2)nc1 [Example 89]
Ki (Human recombinant MMP-2): 0.0488 nM | Ki (Human recombinant MMP-13): 0.0332 nM

O=C(NO)C1(S(=O)(=O)c2ccc(-c3ccc(C(F)(F)F)cc3F)cc2)CCOCC1 [Example 96]
Ki (Human recombinant MMP-2): 0.668 nM | Ki (Human recombinant MMP-13): 0.416 nM

O=C1c2ccccc2C(=O)N1CCCOc1cccc(-c2ccc(S(=O)(=O)C3(C(=O)NO)CCOCC3)cc2)c1 [Example 196]
Ki (Human recombinant MMP-2): 947 nM | Ki (Human recombinant MMP-13): 13.5 nM

O=C(c1ccc2cc(-c3ccc(S(=O)(=O)C4(C(=O)NO)CCOCC4)cc3)ccc2c1)N1CCCCC1 [Example 223]
Ki (Human recombinant MMP-2): 11 nM | Ki (Human recombinant MMP-13): 0.97 nM

O=C(NO)C1(S(=O)(=O)c2ccc(-c3ccc(OCC(F)(F)C(F)F)c(C(F)(F)F)c3)cc2)CCOCC1 [Example 85]
Ki (Human recombinant MMP-2): 33.4 nM | Ki (Human recombinant MMP-13): 14.7 nM

O=C(N1CCCCC1)N1CCC(C(=O)NO)(S(=O)(=O)c2ccc(-c3ccc(CCC(F)(F)C(F)(F)F)cc3)cc2)CC1 [Example 175]
Ki (Human recombinant MMP-2): 0.42 nM | Ki (Human recombinant MMP-13): 0.71 nM

O=C(NO)C1(S(=O)(=O)c2ccc(-c3cnc(OCCC4CC4)cn3)cc2)CCOCC1 [Example 172]
Ki (Human recombinant MMP-2): 0.07 nM | Ki (Human recombinant MMP-13): 0.03 nM

O=C(NO)C1(S(=O)(=O)c2ccc(-c3cnc(CCC(F)(F)F)cn3)cc2)CCN(C2CC2)CC1 [Example 215]
Ki (Human recombinant MMP-2): 1.15 nM | Ki (Human recombinant MMP-13): 0.356 nM

O=C(NO)C1(S(=O)(=O)c2ccc(-c3ccc(F)c(C(F)(F)F)c3)cc2)CCOCC1 [Example 84]
Ki (Human recombinant MMP-2): 10.1 nM | Ki (Human recombinant MMP-13): 1.85 nM

O=C(NO)C1(S(=O)(=O)c2ccc(-c3cnc(OCCCC(F)(F)F)cn3)cc2)CCOCC1 [Example 88]
Ki (Human recombinant MMP-2): 0.15 nM | Ki (Human recombinant MMP-13): 0.0368 nM

COc1ccc(Cc2cnc(-c3ccc(S(=O)(=O)C4(C(=O)NO)CCOCC4)cc3)cn2)cc1 [Example 182]
Ki (Human recombinant MMP-2): 114 nM | Ki (Human recombinant MMP-13): 7.07 nM

CCCCNC(=O)c1ccc(-c2ccc(S(=O)(=O)C3(C(=O)NO)CCOCC3)cc2)nc1 [Example 203]
Ki (Human recombinant MMP-2): 1.77 nM | Ki (Human recombinant MMP-13): 0.375 nM

CC(C)CC#Cc1cnc(-c2ccc(S(=O)(=O)C3(C(=O)NO)CCOCC3)cc2)cn1 [Example 166]
Ki (Human recombinant MMP-2): 0.4 nM | Ki (Human recombinant MMP-13): 0.03 nM

O=C(NO)C1(S(=O)(=O)c2ccc(-c3ccc(OCC(F)(F)C(F)(F)F)c(C(F)(F)F)c3)cc2)CCOCC1 [Example 90]
Ki (Human recombinant MMP-2): 28.3 nM | Ki (Human recombinant MMP-13): 19.7 nM

Cc1ccc(-c2ccc(S(=O)(=O)C3(C(=O)NO)CCOCC3)cc2)nc1 [Example 81]
Ki (Human recombinant MMP-2): 0.106 nM | Ki (Human recombinant MMP-13): 0.118 nM
